Experimental data from ChEMBL document CHEMBL3393036, “Tetra-substituted pyridinylimidazoles as dual inhibitors of p38α mitogen-activated protein kinase and c-Jun N-terminal kinase 3 for potential treatment of neurodegenerative diseases” (J Med Chem, 2015).
In brackets after ≈: the same amount, converted by molar mass.

Tests used:
[1] = species on record: Homo sapiens; test: Selectivity ratio of IC50 for JNK3 (unknown origin) to IC50 for p38alpha (unknown origin)
[2] = biological target: Mitogen-activated protein kinase 10 (Homo sapiens, UniProt P53779); test: Inhibition of JNK3 (unknown origin) assessed as phosphorylation of ATF-2 by ELISA
[3] = biological target: Mitogen-activated protein kinase 14 (Homo sapiens, UniProt Q16539); test: Inhibition of p38alpha (unknown origin) assessed as phosphorylation of ATF-2 by ELISA
[4] = tested on: U2OS; test: Cytotoxicity against human U2OS cells assessed as morphology up to 50 uM by DAPI staining assay; format: cell-based
[5] = Metabolic stability in human liver microsomes assessed as compound remaining after 240 mins by LC-MS/MS analysis; format: ADME; settings: read-out: Stability
[6] = Solubility in aqueous PBS-buffer at pH 7.4; format: physicochemical

Chain of Mitogen-activated protein kinase 10 (P53779 whole entry): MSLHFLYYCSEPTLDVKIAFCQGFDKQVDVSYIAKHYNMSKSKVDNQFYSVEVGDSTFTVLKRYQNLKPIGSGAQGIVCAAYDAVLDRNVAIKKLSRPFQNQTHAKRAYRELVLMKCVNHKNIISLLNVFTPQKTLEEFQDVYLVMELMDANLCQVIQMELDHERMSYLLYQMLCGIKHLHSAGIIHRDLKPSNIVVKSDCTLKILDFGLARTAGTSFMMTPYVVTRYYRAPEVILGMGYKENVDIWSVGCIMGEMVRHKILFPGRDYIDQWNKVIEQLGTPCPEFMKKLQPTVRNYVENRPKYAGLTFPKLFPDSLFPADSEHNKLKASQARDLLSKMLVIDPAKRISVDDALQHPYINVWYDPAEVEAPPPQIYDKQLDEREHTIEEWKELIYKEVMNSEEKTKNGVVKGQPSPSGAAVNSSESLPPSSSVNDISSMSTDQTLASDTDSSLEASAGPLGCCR
Chain of Mitogen-activated protein kinase 14 (Q16539 whole entry): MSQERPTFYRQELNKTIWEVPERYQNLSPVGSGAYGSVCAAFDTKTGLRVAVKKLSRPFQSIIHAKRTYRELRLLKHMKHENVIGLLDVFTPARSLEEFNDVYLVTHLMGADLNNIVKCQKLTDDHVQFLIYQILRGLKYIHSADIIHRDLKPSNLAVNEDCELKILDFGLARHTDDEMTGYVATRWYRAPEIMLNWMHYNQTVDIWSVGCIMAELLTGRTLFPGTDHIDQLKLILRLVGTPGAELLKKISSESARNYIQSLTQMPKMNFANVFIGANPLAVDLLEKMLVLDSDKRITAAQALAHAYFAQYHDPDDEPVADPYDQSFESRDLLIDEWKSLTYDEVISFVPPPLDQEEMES

Ratio IC50 [1]	IC50 [2]	IC50 [3]	remaining at 4 h [5]	solubility [6]	Structure (SMILES)	Activity [4]
1.5	678 nM	451 nM	–	–	CCOC(=O)/C=C/Sc1nc(-c2ccc(F)cc2)c(-c2ccnc(NC(C)=O)c2)n1C1CC1	–
0.2	79 nM	416 nM	–	–	CC(=O)Nc1cc(-c2c(-c3ccc(F)cc3)nc(SC3CCC(C(=O)O)CC3O)n2C2CCCCC2)ccn1 (stereo not given)	–
0.1	12 nM	128 nM	–	–	COC(Cn1c(S/C=C\C(=O)O)nc(-c2ccc(F)cc2)c1-c1ccnc(NC2CC2)c1)OC	–
6.6	4220 nM	642 nM	–	–	COC(Cn1c(SCC#N)nc(-c2ccc(F)cc2)c1-c1ccnc(F)c1)OC	–
0.3	45 nM	164 nM	–	–	CC(=O)Nc1cc(-c2c(-c3ccc(F)cc3)nc(S/C=C\C(=O)O)n2C2CCCC2)ccn1	–
0.2	180 nM	764 nM	–	–	CC(=O)Nc1cc(-c2c(-c3ccc(F)cc3)nc(SC3CCC(C(=O)O)CC3O)n2C)ccn1 (stereo not given)	–
0.2	269 nM	1700 nM	–	–	COC(Cn1c(SCCC(=O)O)nc(-c2ccc(F)cc2)c1-c1ccnc(NC(C)=O)c1)OC	–
0.5	80 nM	146 nM	–	–	CCOC(=O)/C=C\Sc1nc(-c2ccc(F)cc2)c(-c2ccnc(Nc3ccccc3)c2)[nH]1	–
1.2	213 nM	181 nM	–	–	O=C(O)/C=C/Sc1nc(-c2ccc(F)cc2)c(-c2ccnc(Nc3ccccc3)c2)n1CC1CC1	–
0.3	55 nM	191 nM	–	–	CC(=O)Nc1cc(-c2c(-c3ccc(F)cc3)nc(S/C=C\C(=O)O)n2C)ccn1	–
0.6	18 nM	30 nM	70%	1200 µg/mL (≈ 2650 µM)	CC(=O)Nc1cc(-c2c(-c3ccc(F)cc3)nc(S/C=C\C(=O)O)n2CC2CC2)ccn1	Non-toxic
0.8	170 nM	208 nM	–	–	CC(=O)Nc1cc(-c2c(-c3ccc(F)cc3)nc(S/C=C/C(=O)O)n2CC2CC2)ccn1	–
0.4	61 nM	146 nM	–	–	CCNC(=O)N1CCC(Nc2cc(-c3c(-c4ccc(F)cc4)nc(S/C=C\C(=O)O)n3C)ccn2)CC1	–
0.3	226 nM	723 nM	–	–	CC(=O)Nc1cc(-c2c(-c3ccc(F)cc3)nc(S/C=C\C(=O)O)n2CC(O)CO)ccn1 (stereo not given)	–
0.2	54 nM	354 nM	–	–	O=C(O)/C=C\Sc1nc(-c2ccc(F)cc2)c(-c2ccnc(Nc3ccccc3)c2)n1CC1CC1	–
4.3	2630 nM	612 nM	–	–	CC(=O)Nc1cc(-c2c(-c3ccc(F)cc3)nc(SC3CCC(C(=O)O)CC3O)n2CC2CCCO2)ccn1 (racemic)	–
0.1	33 nM	335 nM	–	–	COC(Cn1c(S/C=C\C(=O)O)nc(-c2ccc(F)cc2)c1-c1ccnc(NC(C)=O)c1)OC	–
0.4	91 nM	246 nM	–	–	CC(=O)Nc1cc(-c2c(-c3ccc(F)cc3)nc(SCCC(=O)O)n2C)ccn1	–
0.5	17 nM	36 nM	–	–	O=C(O)/C=C\Sc1nc(-c2ccc(F)cc2)c(-c2ccnc(Nc3ccccc3)c2)[nH]1	Non-toxic
0.5	79 nM	153 nM	–	–	COC(Cn1c(SCC#N)nc(-c2ccc(F)cc2)c1-c1ccnc(NC2CC2)c1)OC	Non-toxic
1.8	1220 nM	655 nM	–	–	CCOC(=O)/C=C/Sc1nc(-c2ccc(F)cc2)c(-c2ccnc(NC(C)=O)c2)n1CC1CC1	–
0.2	47 nM	211 nM	–	–	CC(=O)Nc1cc(-c2c(-c3ccc(F)cc3)nc(S/C=C\C(=O)O)n2C2CCC2)ccn1	–
0.7	199 nM	297 nM	–	–	COC(=O)CSc1nc(-c2ccc(F)cc2)c(-c2ccnc(NC(C)=O)c2)n1C	–
8.5	1190 nM	140 nM	–	–	CC(=O)Nc1cc(-c2c(-c3ccc(F)cc3)nc(SCC(=O)N(C)C)n2C)ccn1	–
7.1	255 nM	36 nM	–	–	CC(=O)CSc1nc(-c2ccc(F)cc2)c(-c2ccnc(NC(C)=O)c2)n1C	–
0.2	266 nM	1670 nM	–	–	CC(=O)Nc1cc(-c2c(-c3ccc(F)cc3)nc(SCC(=O)O)n2C)ccn1	–
1	2170 nM	2180 nM	–	–	CCOC(=O)/C=C/Sc1nc(-c2ccc(F)cc2)c(-c2ccnc(NC(C)=O)c2)n1CC(OC)OC	–
0.6	25 nM	39 nM	–	–	CC(=O)Nc1cc(-c2c(-c3ccc(F)cc3)nc(S/C=C\C(=O)O)n2CC2CCCCC2)ccn1	–
0.8	26 nM	34 nM	56%	930 µg/mL (≈ 1860 µM)	CCC(C)Nc1cc(-c2c(-c3ccc(F)cc3)nc(S/C=C\C(=O)O)n2CC(OC)OC)ccn1 (stereo not given)	Non-toxic
